Structure (SMILES) | logP
CCOc1ccc(NC(=O)OCCN(C)C)cc1 | 1.14
CCCCCCCCCCOc1ccccc1NC(=O)OCCN(C)C | 3.82
CCCCCCCOc1cccc(NC(=O)OCCN(C)C)c1 | 2.43
CCCCCCCCOc1ccc(NC(=O)OCCN(C)C)cc1 | 3.26
CCCCCCCCCOc1cccc(NC(=O)OCCN(C)C)c1 | 3.21
CCCCCOc1ccccc1NC(=O)OCCN(C)C | 1.83
CCCCCCCOc1ccccc1NC(=O)OCCN(C)C | 2.5
CCOc1cccc(NC(=O)OCCN(C)C)c1 | 0.8
CCCCCCCOc1ccc(NC(=O)OCCN(C)C)cc1 | 2.93
CCCCCOc1ccc(NC(=O)OCCN(C)C)cc1 | 2.11
CCCCCCCCOc1ccccc1NC(=O)OCCN(C)C | 2.98
CCCCCCCCCCOc1ccc(NC(=O)OCCN(C)C)cc1 | 4.02
COc1ccc(NC(=O)OCCN(C)C)cc1 | 0.97
CCCOc1ccc(NC(=O)OCCN(C)C)cc1 | 1.41
CCCOc1cccc(NC(=O)OCCN(C)C)c1 | 1.04
CCCCCOc1cccc(NC(=O)OCCN(C)C)c1 | 1.72
CCCCCCCCOc1cccc(NC(=O)OCCN(C)C)c1 | 2.87
CCCOc1ccccc1NC(=O)OCCN(C)C | 1.24
CCCCOc1ccccc1NC(=O)OCCN(C)C | 1.5
CCCCCCOc1ccc(NC(=O)OCCN(C)C)cc1 | 2.47
CCCCOc1ccc(NC(=O)OCCN(C)C)cc1 | 1.77
CCCCCCOc1ccccc1NC(=O)OCCN(C)C | 2.13
CCCCCCOc1cccc(NC(=O)OCCN(C)C)c1 | 2.01
CCCCCCCCCOc1ccccc1NC(=O)OCCN(C)C | 3.35
CCOc1ccccc1NC(=O)OCCN(C)C | 1.15
CCCCOc1cccc(NC(=O)OCCN(C)C)c1 | 1.35
COc1ccccc1NC(=O)OCCN(C)C | 1.15
